Drawing on US6376230B1 (dated 2002), this text covers melting point for two molecules.

As to `CCCCCCC1=C(O)CCOC1=O`, the melting point was 98 to 99 °C (dec.). As for `CC1=C(O)CCOC1=O`, the figure is 138 to 144 °C (dec.).
